Experimental findings from patent US7884136B2, “Modified-release formulations of a bupropion salt” (Biovail Laboratories International S.R.L., priority 2005, dated 2011) are described below.

Data set [1] is described as follows: Accelerated stability study of bupropion HBr, closed bottles, 40° C./75% RH, 3 and 6 months, HPLC. The format is physicochemical. Conditions: 40° C./75% RH. As for the experimental part:
The samples were prepared in closed bottles and placed in the stability chamber. HPLC analysis was conducted on the samples prior to placing them in the stability chamber (time 0), and after 3 months and 6 months. The amounts of the main degradation products present at time 0 were compared with those amounts present after 3 months and 6 months. […] For each sample tested, at each time period, two different HPLC assays were run. The first assay labelled chromatographic purity A, measured the percentage of three impurities 3′chloropropiophenone, 3′-Chloro-2-bromopropiophenone and 3′-Chlorobenzoic acid. The second assay, labelled chromatographic purity B, measured the percentage of 2-N-(tert-Butyl)-aminopropiophenone, a single unknown impurity and the total unknown impurities.

Data set [2] can be described thus: Shelf life stability program of bupropion HBr, 25° C./60% RH, 3 and 6 months, HPLC. The format is physicochemical. As to conditions: 25° C./60% RH, 3 and 6 months. On the procedure:
The stability of bupropion HBr was studied over a longer term under conditions meant to approximate standard storage or shelf conditions. Samples were prepared in closed containers and subjected to long-term storage at 25° C.+2° C. and 60%+5% RH in a stability chamber. The samples were analyzed by HPLC prior to being placed in the stability chamber (time 0) and after 3 months and 6 months. The amounts of the main degradation products present at time 0 were compared with the amounts present at 3 months and 6 months. As shown in Table 77-79 three different batches of bupropion HBr were tested. As in Example 10 each sample was tested under two HPLC assay conditions to identify 6 impurities or groups of impurities as described in Example 10.

As to `Br.CC(NC(C)(C)C)C(=O)c1cccc(Cl)c1` (centres unmarked) [Bupropion HBr, bupropion hydrobromide], the “Total percentage of impurities, change” value in data set [1] (3-month and 6-month) is reported as “did not change”. Also, the “Impurity 3′-chloropropiophenone, trend” value is on record as “slight increase” in data set [1] (3 and 6 months, three batches); “increased slightly over time” in data set [2] (three batches). Moreover, the “Stability under the accelerated stability test conditions” value in data set [1] (6 months) was “highly stable”. For the same compound, in data set [2], the “Other impurities, trend” value is on record as “did not show an increasing trend over time”.
